Source: US7135489B2, “Crystalline form of 4-[5-methyl-3-phenylisoxazol-4-yl] benzenesulfonamide” (G. D. Searle & Co., priority 1996, dated 2006)

Key:
Assay type in all cases: physicochemical
[1] = Thermal stability of crystal form
Experimental: Melting points were performed either on a Thomas Hoover melting point apparatus or a Mettler FP900 Thermosystem melting point apparatus. Melting ranges were determined by differential scanning calorimetry on a TA Instruments Differential Scanning Calorimeter (Model 2100 controller, Model 912 dual calorimeter). The sample (1-2 mg) was placed in an unsealed aluminum pan and heated at 10° C./minute.

[2] = Stability after mechanical grinding (milling)
[3] = Stability of crystalline form compared with the earlier form; settings: compared with earlier material Form A

| thermal stability [1] | stability after mechanical grinding (milling) [2] | stability relative to Form A [3] | Compound |
| --- | --- | --- | --- |
| thermally unstable | unstable | – | Cc1onc(-c2ccccc2)c1-c1ccc(S(N)(=O)=O)cc1 [Form A, 4-[5-methyl-3-phenylisoxazol-4-yl]benzenesulfonamide] |
| – | – | more stable | Cc1onc(-c2ccccc2)c1-c1ccc(S(N)(=O)=O)cc1 [Form B, 4-[5-methyl-3-phenylisoxazol-4-yl]benzenesulfonamide] |
